The values below come from patent publication US20140005163A1 (NOVARTIS AG, priority 2010, published 2014).

The test system of test [1] is PKB Ser473 phosphorylation in Rat1-myr-HA-p110 beta cells. Nature of the test: Reverse protein array assay, PKB Ser473 phosphorylation in Rat1-myr-p110 beta cells. It counts as cell-based. The following applies: 0.5 h, pAkt Ser473, 30 minutes incubation, read-out: p-PKB IC50. An outline of the steps: (§1)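 Cells: Rat1-myr-HA-p110 alpha/beta/delta, seeded ≥20 h. Lysis on ice 10 min; reverse-phase protein array, 4 lysate dilutions; fluorescence read, relative intensity.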

The subject of test [2] is S6 Ribosomal Protein phosphorylation Ser235/236 in TSC1 null mouse embryo fibroblast (MEF) cells. Nature of the test: Reverse protein array assay, S6 Ribosomal Protein phosphorylation Ser235/236 in TSC1 null MEF cells. Format: cell-based. To be noted: 1 h, pS6 ribosomal protein Ser235/236, 60 minutes incubation, read-out: p-S6 IC50. An outline of the steps:
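TSC1−/− MEFs, seeded and held ≥20 h at 37 °C/5% CO2, were exposed to 8-step serial compound dilutions (0.02% DMSO final; DMSO vehicle control) for 60 min at 37 °C. Cells were then lysed on ice for 10 min and lysates spotted onto reverse protein array chips.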

In test [3] the test system is PKB Ser473 phosphorylation in Rat1-myr-HA-p110 delta cells. Nature of the test: Reverse protein array assay, PKB Ser473 phosphorylation in Rat1-myr-p110 delta cells. To be noted: read-out: p-PKB IC50. It counts as cell-based. An outline of the steps: as §1
A further test concerns the target T1, PI3K delta (Homo sapiens, UniProt O00329).
T1 construct: for the full-length p110-d subunit are generated and fused by overlapping PCR; p85(iSH2) fusion partner (see partner chain) (N); His tag (C); made in house; host or cells: baculovirus; Tn5 (Trichoplusia ni) or TiniPro insect cells
Nature of the test: PI3K delta kinase assay (Kinase-Glo luminescence). It counts as biochemical. An outline of the steps: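 ATP depletion was measured by Kinase-Glo luminescence after a 60-minute room-temperature reaction containing 1 μM ATP, 10 μg/mL PI and 10 nM His-tagged p85(iSH2)-linker-p110δ (BV-1060). Buffer: Tris pH 7.5, 3 mM MgCl2, 50 mM NaCl, 0.05% CHAPS, 1 mM DTT. IC50 values came from four-parameter fits over eight concentrations.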

Molecules are shown by their SMILES.

T1 sequence (O00329 with tags, fused parts or gaps limits assumed): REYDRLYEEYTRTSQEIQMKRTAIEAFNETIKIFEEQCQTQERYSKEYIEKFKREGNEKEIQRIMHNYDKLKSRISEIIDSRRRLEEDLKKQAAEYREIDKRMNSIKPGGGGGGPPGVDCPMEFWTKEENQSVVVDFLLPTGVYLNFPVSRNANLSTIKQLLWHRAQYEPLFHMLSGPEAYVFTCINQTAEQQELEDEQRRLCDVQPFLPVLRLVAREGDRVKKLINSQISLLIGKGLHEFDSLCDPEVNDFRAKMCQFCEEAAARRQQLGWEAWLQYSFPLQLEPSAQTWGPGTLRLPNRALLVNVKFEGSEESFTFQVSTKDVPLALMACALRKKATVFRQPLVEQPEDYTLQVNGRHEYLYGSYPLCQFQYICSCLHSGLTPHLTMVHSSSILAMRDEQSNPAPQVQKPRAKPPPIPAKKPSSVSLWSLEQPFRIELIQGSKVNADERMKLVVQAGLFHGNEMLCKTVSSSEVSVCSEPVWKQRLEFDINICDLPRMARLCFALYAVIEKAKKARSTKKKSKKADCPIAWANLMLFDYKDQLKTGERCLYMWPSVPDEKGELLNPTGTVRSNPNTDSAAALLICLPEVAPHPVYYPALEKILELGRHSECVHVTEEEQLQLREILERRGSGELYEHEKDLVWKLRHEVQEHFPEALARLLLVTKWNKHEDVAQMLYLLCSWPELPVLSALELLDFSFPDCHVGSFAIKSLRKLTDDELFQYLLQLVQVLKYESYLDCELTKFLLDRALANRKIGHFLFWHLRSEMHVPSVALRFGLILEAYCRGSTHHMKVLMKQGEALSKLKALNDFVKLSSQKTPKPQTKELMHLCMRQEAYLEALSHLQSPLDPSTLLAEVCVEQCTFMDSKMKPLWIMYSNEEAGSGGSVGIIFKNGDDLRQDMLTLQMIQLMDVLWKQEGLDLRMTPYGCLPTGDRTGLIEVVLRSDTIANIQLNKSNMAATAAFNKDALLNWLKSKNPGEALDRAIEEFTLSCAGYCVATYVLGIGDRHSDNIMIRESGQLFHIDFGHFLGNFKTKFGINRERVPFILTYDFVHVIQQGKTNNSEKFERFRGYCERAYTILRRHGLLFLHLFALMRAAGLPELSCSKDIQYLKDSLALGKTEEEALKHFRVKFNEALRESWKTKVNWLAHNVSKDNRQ

For the compound `CCOc1ccc(-c2ccc3ncc4c(c3c2)n(-c2cn(CC(=O)N(C)CC)nc2C)c(=O)n4C)cn1` [Example 136, 2-{4-[8-(6-Ethoxy-pyridin-3-yl)-3-methyl-2-oxo-2,3-dihydro-imidazo[4,5-c]quinolin-1-yl]-3-methyl-pyrazol-1-yl}-N-ethyl-N-methyl-acetamide], the IC50 in test [1] is 16 nM; in test [2], 3 nM; in test [3], 66 nM; at PI3K delta, 214 nM.
For the compound `COCCN(C)C(=O)Cn1cc(-n2c(=O)n(C)c3cnc4ccc(-c5ccccc5)cc4c32)c(C)n1` [Example 137, N-(2-Methoxy-ethyl)-N-methyl-2-[3-methyl-4-(3-methyl-2-oxo-8-phenyl-2,3-dihydro-imidazo[4,5-c]quinolin-1-yl)-pyrazol-1-yl]-acetamide], the IC50 in test [1] came out at 428 nM; in test [2] it was 9 nM; in test [3] it was 595 nM; on PI3K delta, 922 nM.
As for `CCOc1ccc(-c2ccc3ncc4c(c3c2)n(-c2cn(CC(=O)N3CCC3)nc2C)c(=O)n4C)cn1` [Example 138, 1-[1-(2-Azetidin-1-yl-2-oxo-ethyl)-3-methyl-1H-pyrazol-4-yl]-8-(6-ethoxy-pyridin-3-yl)-3-methyl-1,3-dihydro-imidazo[4,5-c]quinolin-2-one], the IC50 in test [1] worked out at 38 nM; in test [2] it was 3 nM; in test [3] it was 58 nM; at PI3K delta, 42 nM.
In the same order, the values of `CCN(CC)C(=O)Cn1cc(-n2c(=O)n(C)c3cnc4ccc(-c5ccc(C)nc5)cc4c32)c(C)n1` [Example 139, N,N-Diethyl-2-{3-methyl-4-[3-methyl-8-(6-methyl-pyridin-3-yl)-2-oxo-2,3-dihydro-imidazo[4,5-c]quinolin-1-yl]-pyrazol-1-yl}-acetamide] are 39 nM, 4 nM, 70 nM and 69 nM.
For `CNc1ncc(-c2ccc3ncc4c(c3c2)n(-c2cn(C)nc2C)c(=O)n4C)cc1C(F)(F)F` [Example 144.3, 1-(1,3-Dimethyl-1H-pyrazol-4-yl)-3-methyl-8-(6-methylamino-5-trifluoromethyl-pyridin-3-yl)-1,3-dihydro-imidazo[4,5-c]quinolin-2-one], in that order: below 5 nM, below 0.5 nM, 11 nM and 9 nM.
For the compound `CNc1ncc(-c2ccc3ncc4c(c3c2)n(-c2cn(C)nc2C)c(=O)n4C)cc1Cl` [Example 146.1, 8-(5-Chloro-6-methylamino-pyridin-3-yl)-1-(1,3-dimethyl-1H-pyrazol-4-yl)-3-methyl-1,3-dihydro-imidazo[4,5-c]quinolin-2-one], the IC50 in test [1] was 9 nM; in test [2], below 0.5 nM; in test [3], 24 nM; at PI3K delta, 16 nM.
For `CCn1cc(-n2c(=O)n(C)c3cnc4ccc(-c5cnc(NC)c(Cl)c5)cc4c32)c(C)n1` [Example 146.2, 8-(5-Chloro-6-methylamino-pyridin-3-yl)-1-(1-ethyl-3-methyl-1H-pyrazol-4-yl)-3-methyl-1,3-dihydro-imidazo[4,5-c]quinolin-2-one], the IC50 was found to be 11 nM in test [1], 2 nM in test [2], 18 nM in test [3] and 30 nM on PI3K delta.
For the compound `Cc1nn(C(C)C)cc1-n1c(=O)n(C)c2cnc3ccc(-c4cnc(F)c(N)c4)cc3c21` [Example 149.1, 8-(5-Amino-6-fluoro-pyridin-3-yl)-1-(1-isopropyl-3-methyl-1H-pyrazol-4-yl)-3-methyl-1,3-dihydro-imidazo[4,5-c]quinolin-2-one], the IC50 in test [1] is 66 nM; in test [2] it was 9 nM; in test [3] it was 118 nM; at PI3K delta, 17 nM.
For `Cc1nn(C)cc1-n1c(=O)n(C)c2cnc3ccc(-c4cnc(F)c(N)c4)cc3c21` [Example 149.2, 8-(5-Amino-6-fluoro-pyridin-3-yl)-1-(1,3-dimethyl-1H-pyrazol-4-yl)-3-methyl-1,3-dihydro-imidazo[4,5-c]quinolin-2-one], the IC50 in test [1] was determined as 68 nM; in test [2], 3 nM; in test [3], 56 nM; at PI3K delta, 8 nM.
`CCn1cc(-n2c(=O)n(C)c3cnc4ccc(-c5cnc(F)c(NC)c5)cc4c32)c(C)n1` [Example 150.1, 1-(1-Ethyl-3-methyl-1H-pyrazol-4-yl)-8-(6-fluoro-5-methylamino-pyridin-3-yl)-3-methyl-1,3-dihydro-imidazo[4,5-c]quinolin-2-one]: the IC50 in test [1] came to 11 nM; in test [2] it was 1 nM; in test [3] it was 21 nM; at PI3K delta, 8 nM.
As for `CCNc1cc(-c2ccc3ncc4c(c3c2)n(-c2c(C)nn(C)c2C)c(=O)n4C)cnc1Cl` [Example 153.1, 8-(6-Chloro-5-ethylamino-pyridin-3-yl)-3-methyl-1-(1,3,5-trimethyl-1H-pyrazol-4-yl)-1,3-dihydro-imidazo[4,5-c]quinolin-2-one], the IC50 in test [1] was 17 nM; in test [2], 4 nM; in test [3], 19 nM; at PI3K delta, 3 nM.
In the same order, the values of `CCNc1cc(-c2ccc3ncc4c(c3c2)n(-c2cn(C(C)C)nc2C)c(=O)n4C)cnc1CO` [Example 155.3, 8-(5-Ethylamino-6-hydroxymethyl-pyridin-3-yl)-1-(1-isopropyl-3-methyl-1H-pyrazol-4-yl)-3-methyl-1,3-dihydro-imidazo[4,5-c]quinolin-2-one] are below 5 nM, 1 nM, 9 nM and 10 nM.
For the compound `CCNc1cc(-c2ccc3ncc4c(c3c2)n(-c2c(C)nn(C)c2C)c(=O)n4C)cnc1CO` [Example 155.4, 8-(5-Ethylamino-6-hydroxymethyl-pyridin-3-yl)-3-methyl-1-(1,3,5-trimethyl-1H-pyrazol-4-yl)-1,3-dihydro-imidazo[4,5-c]quinolin-2-one], the IC50 was 47 nM in test [1], 18 nM in test [2], 59 nM in test [3] and 11 nM at PI3K delta.
For the compound `CCNc1cc(-c2ccc3ncc4c(c3c2)n(-c2cn(CC)nc2C)c(=O)n4C)cnc1COC` [Example 157, 8-(5-Ethylamino-6-methoxymethyl-pyridin-3-yl)-1-(1-ethyl-3-methyl-1H-pyrazol-4-yl)-3-methyl-1,3-dihydro-imidazo[4,5-c]quinolin-2-one], the concentration for half-maximal inhibition (IC50) in test [1] stood at 8 nM; in test [2] it was 1 nM; in test [3] it was 12 nM; on PI3K delta, 9 nM.
For `CNc1cc(-c2ccc3ncc4c(c3c2)n(-c2cn(C)nc2C)c(=O)n4C)cnc1COC` [Example 159, 1-(1,3-Dimethyl-1H-pyrazol-4-yl)-8-(6-methoxymethyl-5-methylamino-pyridin-3-yl)-3-methyl-1,3-dihydro-imidazo[4,5-c]quinolin-2-one], in that order: 8 nM, 8 nM, 24 nM and 25 nM.
As to `CCNc1cc(-c2ccc3ncc4c(c3c2)n(-c2cn(C)nc2C)c(=O)n4C)cnc1CC` [Example 161, 1-(1,3-Dimethyl-1H-pyrazol-4-yl)-8-(6-ethyl-5-ethylamino-pyridin-3-yl)-3-methyl-1,3-dihydro-imidazo[4,5-c]quinolin-2-one], the IC50 is below 5 nM in test [1], 2 nM in test [2], below 5 nM in test [3] and 8 nM on PI3K delta.
On to `CCOCc1cc(-c2ccc3ncc4c(c3c2)n(-c2cn(C)nc2C)c(=O)n4C)cnc1N` [Example 166.1, 8-(6-Amino-5-ethoxymethyl-pyridin-3-yl)-1-(1,3-dimethyl-1H-pyrazol-4-yl)-3-methyl-1,3-dihydro-imidazo[4,5-c]quinolin-2-one], for which the IC50 was determined as 54 nM in test [1], 3 nM in test [2], 57 nM in test [3] and 3 nM on PI3K delta.
With `Cn1cc(-n2c(=O)n(C)c3cnc4ccc(-c5cnc(N)c(CO)c5)cc4c32)c(Cl)n1` [Example 169.3, 8-(6-Amino-5-hydroxymethyl-pyridin-3-yl)-1-(3-chloro-1-methyl-1H-pyrazol-4-yl)-3-methyl-1,3-dihydro-imidazo[4,5-c]quinolin-2-one], the IC50 in test [1] was 24 nM; in test [2] it was 1.32 nM; in test [3] it was 41 nM; at PI3K delta, below 3 nM.
Regarding `CCN(C)c1cncc(-c2ccc3ncc4c(c3c2)n(-c2cn(C)nc2C)c(=O)n4C)c1` [Example 176, 1-(1,3-Dimethyl-1H-pyrazol-4-yl)-8-[5-(ethyl-methyl-amino)-pyridin-3-yl]-3-methyl-1,3-dihydro-imidazo[4,5-c]quinolin-2-one], the concentration for half-maximal inhibition (IC50) was found to be 7 nM in test [1], 2 nM in test [2], 48 nM in test [3] and 15 nM at PI3K delta.

Usually IC50 stands for the concentration at which inhibition is half-maximal.
